Experimental data from ChEMBL document CHEMBL3885881, “DrugMatrix”.

Species on record: Rattus norvegicus
Assay: DrugMatrix - Regimen: Daily Repeat
Type: toxicity, organism-based, Sprague-Dawley
Parameters: regimen Daily Repeat, gender Male, age 6-8 weeks
Details: in vivo, po, route oral GAVAGE, […]; for ABSOLUTE BASOPHIL / ABSOLUTE EOSINOPHIL / ABSOLUTE LYMPHOCYTE / ABSOLUTE MONOCYTE / ABSOLUTE SEGMENTED NEUTROPHIL / BASOPHIL / EOSINOPHIL / ERYTHROCYTE COUNT / HEMATOCRIT / HEMOGLOBIN / LEUKOCYTE COUNT / LYMPHOCYTE / MEAN CORPUSCULAR HEMOGLOBIN / MEAN CORPUSCULAR HEMOGLOBIN CONCENTRATION / MEAN CORPUSCULAR VOLUME / MONOCYTE / NEUTROPHIL / NUCLEATED RED BLOOD CELLS / PLATELET COUNT: tissue Blood; for ALANINE AMINOTRANSFERASE / ALBUMIN / ALKALINE PHOSPHATASE / ASPARTATE AMINOTRANSFERASE / BLOOD UREA NITROGEN / CARBON DIOXIDE / CHLORIDE / CHOLESTEROL / CREATINE PHOSPHOKINASE / CREATININE / GLUCOSE / LACTATE DEHYDROGENASE / LIPASE / PHOSPHORUS / POTASSIUM / SODIUM / TOTAL BILIRUBIN / TOTAL PROTEIN / URIC ACID: tissue Plasma
[1] = 100 mg/kg, 120 h, dose level M1, time 5 day
[2] = 610 mg/kg, 72 h, dose level High, time 3 day
[3] = 610 mg/kg, 120 h, dose level High, time 5 day

With CC(C)(c1ccc(O)cc1)c1ccc(O)cc1 [BISPHENOL A] the “ABSOLUTE BASOPHIL” value [1] was 0 CELLS/uL, the “ABSOLUTE EOSINOPHIL” value [1] was 0 CELLS/uL and the “ABSOLUTE LYMPHOCYTE” value [1] was 6683.33 CELLS/uL. For the same compound, the “ABSOLUTE MONOCYTE” value [1] was 63.33 CELLS/uL, the “ABSOLUTE SEGMENTED NEUTROPHIL” value [1] was 353.33 CELLS/uL and the BASOPHIL [1] was 0%. For the same compound, the EOSINOPHIL [1] was 0%, the “ERYTHROCYTE COUNT” value [1] was 5.4 x10E6/uL and the HEMATOCRIT [1] was 32.4%. For the same compound, the HEMOGLOBIN [1] was 12.83 G/DL, the “LEUKOCYTE COUNT” value [1] was 7.1 x10E3/uL and the LYMPHOCYTE [1] was 94%. The “MEAN CORPUSCULAR HEMOGLOBIN” value [1] was 23.8 pg, the “MEAN CORPUSCULAR HEMOGLOBIN CONCENTRATION” value [1] was 39.63 G/DL and the “MEAN CORPUSCULAR VOLUME” value [1] was 59.87 fL. For the same compound, the MONOCYTE [1] was 1%, the NEUTROPHIL [1] was 5% and the “NUCLEATED RED BLOOD CELLS” value [1] was 0 /100WBC. For the same compound, the “PLATELET COUNT” value [1] was 1281.67 x10E3/uL, the “ALANINE AMINOTRANSFERASE” value [1] was 80.33 u/L and the ALBUMIN [1] was 4.13 G/DL. For the same compound, the “ALKALINE PHOSPHATASE” value [1] was 398.67 u/L, the “ASPARTATE AMINOTRANSFERASE” value [1] was 90.33 u/L and the “BLOOD UREA NITROGEN” value [1] was 13.33 mg/dL. The “CARBON DIOXIDE” value [1] was 29.33 mmol/L, the CHLORIDE [1] was 100.33 MEQ/L and the CHOLESTEROL [1] was 54.67 mg/dL. For the same compound, the “CREATINE PHOSPHOKINASE” value [1] was 295 u/L, the CREATININE [1] was 0.26 mg/dL and the GLUCOSE [1] was 161 mg/dL. For the same compound, the “LACTATE DEHYDROGENASE” value [1] was 102.33 u/L, the LIPASE [1] was 13.33 u/L and the PHOSPHORUS [1] was 9.57 mg/dL. For the same compound, the POTASSIUM [1] was 5.37 MEQ/L, the SODIUM [1] was 144.17 MEQ/L and the “TOTAL BILIRUBIN” value [1] was 0.17 mg/dL. For the same compound, the “TOTAL PROTEIN” value [1] was 5.77 G/DL, the “URIC ACID” value [1] was 0.83 mg/dL and the “ABSOLUTE BASOPHIL” value [2] was 0 CELLS/uL. The “ABSOLUTE EOSINOPHIL” value [2] was 22.33 CELLS/uL, the “ABSOLUTE LYMPHOCYTE” value [2] was 6406 CELLS/uL and the “ABSOLUTE MONOCYTE” value [2] was 44.67 CELLS/uL. For the same compound, the “ABSOLUTE SEGMENTED NEUTROPHIL” value [2] was 760.33 CELLS/uL, the BASOPHIL [2] was 0% and the EOSINOPHIL [2] was 0.33%. For the same compound, the “ERYTHROCYTE COUNT” value [2] was 5.65 x10E6/uL, the HEMATOCRIT [2] was 34.33% and the HEMOGLOBIN [2] was 13.43 G/DL. The “LEUKOCYTE COUNT” value [2] was 7.23 x10E3/uL, the LYMPHOCYTE [2] was 88.33% and the “MEAN CORPUSCULAR HEMOGLOBIN” value [2] was 23.77 pg. The “MEAN CORPUSCULAR HEMOGLOBIN CONCENTRATION” value [2] was 39.1 G/DL, the “MEAN CORPUSCULAR VOLUME” value [2] was 60.8 fL and the MONOCYTE [2] was 0.67%. The NEUTROPHIL [2] was 10.67%, the “NUCLEATED RED BLOOD CELLS” value [2] was 0.33 /100WBC and the “PLATELET COUNT” value [2] was 1156 x10E3/uL. For the same compound, the “ALANINE AMINOTRANSFERASE” value [2] was 84.33 u/L, the ALBUMIN [2] was 3.93 G/DL and the “ALKALINE PHOSPHATASE” value [2] was 316.33 u/L. The “ASPARTATE AMINOTRANSFERASE” value [2] was 77.67 u/L, the “BLOOD UREA NITROGEN” value [2] was 15.67 mg/dL and the “CARBON DIOXIDE” value [2] was 31.33 mmol/L. The CHLORIDE [2] was 100 MEQ/L, the CHOLESTEROL [2] was 64.33 mg/dL and the “CREATINE PHOSPHOKINASE” value [2] was 263.67 u/L. For the same compound, the CREATININE [2] was 0.18 mg/dL, the GLUCOSE [2] was 157.33 mg/dL and the “LACTATE DEHYDROGENASE” value [2] was 115.67 u/L. It also gave an LIPASE [2] of 10 u/L, a PHOSPHORUS [2] of 10.37 mg/dL and a POTASSIUM [2] of 5.53 MEQ/L. The SODIUM [2] was 143.73 MEQ/L, the “TOTAL BILIRUBIN” value [2] was 0.27 mg/dL and the “TOTAL PROTEIN” value [2] was 5.73 G/DL. The “URIC ACID” value [2] was 0.7 mg/dL, the “ABSOLUTE BASOPHIL” value [3] was 0 CELLS/uL and the “ABSOLUTE EOSINOPHIL” value [3] was 0 CELLS/uL. The “ABSOLUTE LYMPHOCYTE” value [3] was 8347 CELLS/uL, the “ABSOLUTE MONOCYTE” value [3] was 82 CELLS/uL and the “ABSOLUTE SEGMENTED NEUTROPHIL” value [3] was 671 CELLS/uL. For the same compound, the BASOPHIL [3] was 0%, the EOSINOPHIL [3] was 0% and the “ERYTHROCYTE COUNT” value [3] was 5.73 x10E6/uL. The HEMATOCRIT [3] was 35.8%, the HEMOGLOBIN [3] was 14.07 G/DL and the “LEUKOCYTE COUNT” value [3] was 9.1 x10E3/uL. For the same compound, the LYMPHOCYTE [3] was 91.67%, the “MEAN CORPUSCULAR HEMOGLOBIN” value [3] was 24.6 pg and the “MEAN CORPUSCULAR HEMOGLOBIN CONCENTRATION” value [3] was 39.3 G/DL. The “MEAN CORPUSCULAR VOLUME” value [3] was 62.63 fL, the MONOCYTE [3] was 0.67% and the NEUTROPHIL [3] was 7.67%. The “NUCLEATED RED BLOOD CELLS” value [3] was 0.33 /100WBC, the “PLATELET COUNT” value [3] was 1180 x10E3/uL and the “ALANINE AMINOTRANSFERASE” value [3] was 106.33 u/L. The ALBUMIN [3] was 4.3 G/DL, the “ALKALINE PHOSPHATASE” value [3] was 452.33 u/L and the “ASPARTATE AMINOTRANSFERASE” value [3] was 135.67 u/L. For the same compound, the “BLOOD UREA NITROGEN” value [3] was 12 mg/dL, the “CARBON DIOXIDE” value [3] was 29 mmol/L and the CHLORIDE [3] was 100.5 MEQ/L. The CHOLESTEROL [3] was 60.33 mg/dL, the “CREATINE PHOSPHOKINASE” value [3] was 592 u/L and the CREATININE [3] was 0.11 mg/dL. The GLUCOSE [3] was 154 mg/dL, the “LACTATE DEHYDROGENASE” value [3] was 112 u/L and the LIPASE [3] was 48.33 u/L. It also gave a PHOSPHORUS [3] of 8.77 mg/dL, a POTASSIUM [3] of 5.17 MEQ/L and an SODIUM [3] of 144.95 MEQ/L. For the same compound, the “TOTAL BILIRUBIN” value [3] was 0.27 mg/dL, the “TOTAL PROTEIN” value [3] was 5.53 G/DL and the “URIC ACID” value [3] was 0.6 mg/dL.
